Test results from patent US10206394B2, “Herbicidal compounds” (Syngenta Participations AG, priority 2014, dated 2019).
Where two headings read alike, the source gives them in different places.

Columns and labels:
Test in all cases: Glasshouse assay for herbicidal activity (pre- and post-emergence), percentage phytotoxicity
Type in all cases: in vivo
[1] = system: Echinochloa crus-galli (ECHCG); settings: Echinochloa crus-galli
In short: (§1)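 Sow seed in standard soil in pots; apply test herbicide after 1 day (PRE) or about 12 days (POST). Grow on in the glasshouse, watering twice daily, cool-season species at 20/16 °C and warm-season at 24/18 °C. Score visible damage (0–100%) at 20 or 15 DAA respectively.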

Lolium perenne (LOLPE) = settings: Lolium perenne
In short: as §1

Avena fatua (AVEFA) = settings: Avena fatua
In short: as §1

[2] = system: Alopecurus myosuroides (ALOMY); settings: Alopecurus myosuroides
In short: as §1

Cc1cc(-c2ncc(Cl)cc2F)cc(C)c1C1C(=O)CC(CC(=O)NCc2ccsc2Br)C1=O (centres unmarked) [Compound A127]
pest or weed control at 250 g/ha ([1]; post-emergence, 360 h, Rate 250 g/ha, post-emergence, assessed visually 15 DAA, 100%=total damage, 0%=no damage, read-out: Post-emergence herbicidal activity (percentage phytotoxicity) ECHCG POST): 100% | pest or weed control at 250 g/ha ([1]; pre-emergence, 480 h, Rate 250 g/ha, pre-emergence, assessed visually 20 DAA, 100%=total damage, 0%=no damage, read-out: Pre-emergence herbicidal activity (percentage phytotoxicity) ECHCG PRE): 60% | pest or weed control at 250 g/ha (Lolium perenne (LOLPE); post-emergence, 360 h, Rate 250 g/ha, post-emergence, assessed visually 15 DAA, 100%=total damage, 0%=no damage, read-out: Post-emergence herbicidal activity (percentage phytotoxicity) LOLPE POST): 90% | pest or weed control at 250 g/ha (Lolium perenne (LOLPE); pre-emergence, 480 h, Rate 250 g/ha, pre-emergence, assessed visually 20 DAA, 100%=total damage, 0%=no damage, read-out: Pre-emergence herbicidal activity (percentage phytotoxicity) LOLPE PRE): 60% | pest or weed control at 250 g/ha (Avena fatua (AVEFA); post-emergence, 360 h, Rate 250 g/ha, post-emergence, assessed visually 15 DAA, 100%=total damage, 0%=no damage, read-out: Post-emergence herbicidal activity (percentage phytotoxicity) AVEFA POST): 70% | pest or weed control at 250 g/ha (Avena fatua (AVEFA); pre-emergence, 480 h, Rate 250 g/ha, pre-emergence, assessed visually 20 DAA, 100%=total damage, 0%=no damage, read-out: Pre-emergence herbicidal activity (percentage phytotoxicity) AVEFA PRE): 20% | pest or weed control at 250 g/ha ([2]; post-emergence, 360 h, Rate 250 g/ha, post-emergence, assessed visually 15 DAA, 100%=total damage, 0%=no damage, read-out: Post-emergence herbicidal activity (percentage phytotoxicity) ALOMY POST): 70% | pest or weed control at 250 g/ha ([2]; pre-emergence, 480 h, Rate 250 g/ha, pre-emergence, assessed visually 20 DAA, 100%=total damage, 0%=no damage, read-out: Pre-emergence herbicidal activity (percentage phytotoxicity) ALOMY PRE): 0%

CCCNC(=O)CC1CC(=O)C(c2c(C)cc(Br)cc2C)C1=O (centres unmarked) [Compound B145]
pest or weed control at 250 g/ha ([1]; post-emergence, 360 h, 250 g/ha, post-emergence, 15 DAA, visual assessment (100%=total damage, 0%=no damage), read-out: Post-emergence herbicidal activity (percentage phytotoxicity) ECHCG POST): 80% | pest or weed control at 250 g/ha ([1]; pre-emergence, 480 h, 250 g/ha, pre-emergence, 20 DAA, visual assessment (100%=total damage, 0%=no damage), read-out: Pre-emergence herbicidal activity (percentage phytotoxicity) ECHCG PRE): 80% | pest or weed control at 250 g/ha (Lolium perenne (LOLPE); post-emergence, 360 h, 250 g/ha, post-emergence, 15 DAA, visual assessment (100%=total damage, 0%=no damage), read-out: Post-emergence herbicidal activity (percentage phytotoxicity) LOLPE POST): 90% | pest or weed control at 250 g/ha (Lolium perenne (LOLPE); pre-emergence, 480 h, 250 g/ha, pre-emergence, 20 DAA, visual assessment (100%=total damage, 0%=no damage), read-out: Pre-emergence herbicidal activity (percentage phytotoxicity) LOLPE PRE): 90% | pest or weed control at 250 g/ha (Avena fatua (AVEFA); post-emergence, 360 h, 250 g/ha, post-emergence, 15 DAA, visual assessment (100%=total damage, 0%=no damage), read-out: Post-emergence herbicidal activity (percentage phytotoxicity) AVEFA POST): 90% | pest or weed control at 250 g/ha (Avena fatua (AVEFA); pre-emergence, 480 h, 250 g/ha, pre-emergence, 20 DAA, visual assessment (100%=total damage, 0%=no damage), read-out: Pre-emergence herbicidal activity (percentage phytotoxicity) AVEFA PRE): 60% | pest or weed control at 250 g/ha ([2]; post-emergence, 360 h, 250 g/ha, post-emergence, 15 DAA, visual assessment (100%=total damage, 0%=no damage), read-out: Post-emergence herbicidal activity (percentage phytotoxicity) ALOMY POST): 80% | pest or weed control at 250 g/ha ([2]; pre-emergence, 480 h, 250 g/ha, pre-emergence, 20 DAA, visual assessment (100%=total damage, 0%=no damage), read-out: Pre-emergence herbicidal activity (percentage phytotoxicity) ALOMY PRE): 70%

CC#Cc1cc(C)c(C2C(=O)CC(CC(=O)NCc3cccc(F)c3)C2=O)c(C)c1 (centres unmarked) [Compound B183]
pest or weed control at 250 g/ha ([1]; post-emergence, 360 h, POST-emergence, rate 250 g/ha, visual score 15 DAA (100%=total damage, 0%=no damage), read-out: Post-emergence herbicidal activity (percentage phytotoxicity) ECHCG POST): 100% | pest or weed control at 250 g/ha ([1]; pre-emergence, 480 h, PRE-emergence, rate 250 g/ha, visual score 20 DAA (100%=total damage, 0%=no damage), read-out: Pre-emergence herbicidal activity (percentage phytotoxicity) ECHCG PRE): 100% | pest or weed control at 250 g/ha (Lolium perenne (LOLPE); post-emergence, 360 h, POST-emergence, rate 250 g/ha, visual score 15 DAA (100%=total damage, 0%=no damage), read-out: Post-emergence herbicidal activity (percentage phytotoxicity) LOLPE POST): 90% | pest or weed control at 250 g/ha (Lolium perenne (LOLPE); pre-emergence, 480 h, PRE-emergence, rate 250 g/ha, visual score 20 DAA (100%=total damage, 0%=no damage), read-out: Pre-emergence herbicidal activity (percentage phytotoxicity) LOLPE PRE): 100% | pest or weed control at 250 g/ha (Avena fatua (AVEFA); post-emergence, 360 h, POST-emergence, rate 250 g/ha, visual score 15 DAA (100%=total damage, 0%=no damage), read-out: Post-emergence herbicidal activity (percentage phytotoxicity) AVEFA POST): 100% | pest or weed control at 250 g/ha (Avena fatua (AVEFA); pre-emergence, 480 h, PRE-emergence, rate 250 g/ha, visual score 20 DAA (100%=total damage, 0%=no damage), read-out: Pre-emergence herbicidal activity (percentage phytotoxicity) AVEFA PRE): 90% | pest or weed control at 250 g/ha ([2]; post-emergence, 360 h, POST-emergence, rate 250 g/ha, visual score 15 DAA (100%=total damage, 0%=no damage), read-out: Post-emergence herbicidal activity (percentage phytotoxicity) ALOMY POST): 100% | pest or weed control at 250 g/ha ([2]; pre-emergence, 480 h, PRE-emergence, rate 250 g/ha, visual score 20 DAA (100%=total damage, 0%=no damage), read-out: Pre-emergence herbicidal activity (percentage phytotoxicity) ALOMY PRE): 100%

Cc1cc(-c2ncc(Cl)cn2)cc(C)c1C1=C(OC(=O)C(C)(C)C)CC(CC(=O)NC(C)(C)C)C1=O (centres unmarked) [Compound P3]
pest or weed control at 250 g/ha ([1]; post-emergence, 360 h, post-emergence, 250 g/ha, 15 DAA, visual score (100%=total damage; 0%=no damage), read-out: ECHCG POST herbicidal activity (percentage phytotoxicity)): 100% | pest or weed control at 250 g/ha ([1]; pre-emergence, 480 h, pre-emergence, 250 g/ha, 20 DAA, visual score (100%=total damage; 0%=no damage), read-out: ECHCG PRE herbicidal activity (percentage phytotoxicity)): 100% | pest or weed control at 250 g/ha (Lolium perenne (LOLPE); post-emergence, 360 h, post-emergence, 250 g/ha, 15 DAA, visual score (100%=total damage; 0%=no damage), read-out: LOLPE POST herbicidal activity (percentage phytotoxicity)): 100% | pest or weed control at 250 g/ha (Lolium perenne (LOLPE); pre-emergence, 480 h, pre-emergence, 250 g/ha, 20 DAA, visual score (100%=total damage; 0%=no damage), read-out: LOLPE PRE herbicidal activity (percentage phytotoxicity)): 100% | pest or weed control at 250 g/ha (Avena fatua (AVEFA); post-emergence, 360 h, post-emergence, 250 g/ha, 15 DAA, visual score (100%=total damage; 0%=no damage), read-out: AVEFA POST herbicidal activity (percentage phytotoxicity)): 90% | pest or weed control at 250 g/ha (Avena fatua (AVEFA); pre-emergence, 480 h, pre-emergence, 250 g/ha, 20 DAA, visual score (100%=total damage; 0%=no damage), read-out: AVEFA PRE herbicidal activity (percentage phytotoxicity)): 80% | pest or weed control at 250 g/ha ([2]; post-emergence, 360 h, post-emergence, 250 g/ha, 15 DAA, visual score (100%=total damage; 0%=no damage), read-out: ALOMY POST herbicidal activity (percentage phytotoxicity)): 100% | pest or weed control at 250 g/ha ([2]; pre-emergence, 480 h, pre-emergence, 250 g/ha, 20 DAA, visual score (100%=total damage; 0%=no damage), read-out: ALOMY PRE herbicidal activity (percentage phytotoxicity)): 100%
